Read-outs that look alike come from different tables or passages of the source.
Experiments:
[1] = system: CD62-L receptor expression by human peripheral blood cells (PBLs); assay: T cell homing: expression of CD62-L receptor, flow cytometry; format: cell-based; conditions: for CD62-L expression (MFI: mean fluorescence intensity) (D) % relative to control / IC50: human PBLs, 72 h; for IC50: % inhibition relative to control, read-out: CD62-L expression (D): IC50 value (concentration at which the compound induces 50% of mycolactone maximal activity); for CD62-L expression (D): corresponding % of mycolactone activity (in brackets): relative to mycolactone (100%)
Procedure: (D) The effect of mycolactone and variants on T cell homing was assessed through their inhibitory effect on the expression of CD62-L receptor by human peripheral blood cells (PBLs). Human PBLs were isolated from total blood by Ficoll density gradient centrifugation. They were incubated in 96-well plates (10^5 cells/well in RPMI 1640 medium supplemented with 10% fetal calf serum and 2 mM L-Glutamine) with mycolactone or variant for 72 h. Cells were then fixed for 20 min in 4% paraformaldehyde (PFA) and stained with an anti-CD62-L antibody coupled with phycoerythrin in a solution of PBS, BSA 0.5%, saponin 0.05%, then analysed by flow cytometry.

[2] = system: epithelial HeLa cell line; assay: Cytopathic activity, MTT assay (effect on global cell metabolic activity); format: cell-based, human; conditions: for Metabolic activity (MA: mean absorbance) (A) % relative to control / IC50: HeLa cells, 48 h, MTT; for IC50: % inhibition relative to control, read-out: Metabolic activity (A): IC50 value (concentration at which the compound induces 50% of mycolactone maximal activity); for Metabolic activity (A): corresponding % of mycolactone activity (in brackets): relative to mycolactone (100%)
Procedure: (A) The cytopathic activity of mycolactone and variants was assessed in a [3-(4,5-Dimethylthiazol-2-yl)-2,5-Diphenyltetrazolium Bromide] (MTT) assay, using the epithelial HeLa cell line (ATCC®; CCL-2) as a model. Briefly, HeLa cells were plated in 96-well plates (10^4 cells/well) in Dulbecco's Modified Eagle culture medium supplemented with 10% fetal calf serum and 2 mM L-Glutamine. After 16 h, mycolactone or variants dilutions (final concentration 0.4-8 μM) were added to the wells, and incubated with the cells for 48 h, prior to the addition of MTT at 50 μg/ml. After 4 h, culture supernatants were removed and the formed formazan crystals dissolved in dimethyl sulfoxide (DMSO) for absorbance measurement.

[3] = system: HeLa cell; assay: Cytotoxicity by Trypan Blue dye exclusion (cell viability); format: cell-based, human
Procedure: (B) HeLa cell death being negligible in the concentration and time frame conditions used in (A), the cytotoxicity of 16 μM mycolactone and variants was evaluated after 48 h of incubation by cell exclusion of the Trypan Blue dye. Here, one part of Trypan blue (0.4% in phosphate-buffered saline PBS) was mixed with one part cell suspension (recovered from cell culture wells by trypsin treatment). The mixture was incubated for 3 min at room temperature and unstained (viable) and stained (nonviable) cells counted separately with a hemacytometer.

[4] = system: IL-2 production by Jurkat T cells; assay: Immunosuppressive activity: activation-induced IL-2 production, ELISA; format: cell-based, human; conditions: for Cytokine production (M.A.: mean absorbance) (C) % relative to control / IC50: Jurkat T cells; for Cytokine production (M.A.: mean absorbance) (C) % relative to control: PMA + calcium ionophore, IL-2 ELISA; for IC50: IL-2, % inhibition relative to control, read-out: Cytokine production (C): IC50 value (concentration at which the compound induces 50% of mycolactone maximal activity); for Cytokine production (C): corresponding % of mycolactone activity (in brackets): relative to mycolactone (100%)
Procedure: (C) The immunosuppressive activity of mycolactone and variants was measured on Jurkat T cells (ATCC®; TIB-152™ clone E6-1), as models of human T lymphocytes. Cells were inoculated in 96-well plates (5×10^5 cells/well in RPMI 1640 medium supplemented with 10% fetal calf serum and 2 mM L-Glutamine) then incubated with serial dilutions of the various compounds for 4 h, and stimulated for 20 h with 50 ng/ml phorbol-12-myristate-13-acetate (PMA) and 1 μg/ml calcium ionophore. The production of IL-2 was then assessed in culture supernatants by ELISA.

[5] = Formalin-induced acute pain model; format: in vivo; conditions: intraperitoneally 60 minutes before formalin, Mycolactone 0.5 mg/kg; for activity against inflammatory pain (global score of pain, late phase 10-40 min): variant 22 5 mg/kg
Procedure: The analgesic properties of Mycolactone and variant 22 were tested in the formalin-induced acute pain model (Encyclopedia of Psychopharmacology, Volume 2, p. 111).
Briefly, Mycolactone and variant 22 were administered intraperitoneally at 0.5 and 5 mg/kg respectively, 60 minutes before the subcutaneous injection of 10 μl of a 5% formalin solution of the right hind-leg. Two negative control groups, injected with PBS (neutral) or ethanol vehicle (vehicle) were tested in the same conditions. A group injected with 3 mg/kg morphin 15 minutes before formalin injection was used as a positive reference.
The time spent in licking/biting and the number of jumps during the early phase (0-5 min) and the late phase (10-40 min) were recorded, as indicators of acute and inflammatory pain, respectively. The graphs in FIG. 5 compare the global score of pain (rank sum of licking/biting time and jump number) in the five groups of animals (Mann-Whitney test on trimmed means; n≧6; *P<0.05 **P<0.01 vs. neutral; # P<0.05, # P<0.01 vs. vehicle.

[6] = system: dendritic cells; conditions: Coutanceau et al., 2007; cited from earlier work
[7] = system: macrophages; conditions: Coutanceau et al., 2005; cited from earlier work
[8] = system: T cell trafficking; conditions: Guenin-Macé et al., 2011; cited from earlier work

Molecule | CD62-L expression (MFI: mean fluorescence intensity) (D) % relative to control ([1]; 4 μM) [%] | CD62-L expression (MFI: mean fluorescence intensity) (D) % relative to control ([1]; 8 μM) [%] | IC50 ([1]; T-cell) [µM] | CD62-L expression (D): corresponding % of mycolactone activity (in brackets) [1] [%] | Metabolic activity (MA: mean absorbance) (A) % relative to control ([2]; 0.4 μM) [%] | Metabolic activity (MA: mean absorbance) (A) % relative to control ([2]; 4 μM) [%] | Metabolic activity (MA: mean absorbance) (A) % relative to control ([2]; 8 μM) [%] | Metabolic activity (A): corresponding % of mycolactone activity (in brackets) [2] [%] | Cytokine production (M.A.: mean absorbance) (C) % relative to control ([4]; 0.4 μM) [%] | Cytokine production (M.A.: mean absorbance) (C) % relative to control ([4]; 4 μM) [%] | Cytokine production (M.A.: mean absorbance) (C) % relative to control ([4]; 8 μM) [%] | IC50 ([4]; Homo sapiens) [µM] | Cytokine production (C): corresponding % of mycolactone activity (in brackets) [4] [%] | activity against inflammatory pain (global score of pain, late phase 10-40 min) [5] | also measured
C/C(=C\[C@@H](C)[C@H](O)C[C@@H](C)O)C[C@H](C)[C@H]1C/C=C/C[C@H](C)[C@@H](O)CCCC(=O)O1 [Compound 11c, (6 S,7 S,9E,12R)-12-[(2S,4E,6R,7R,9R)-7,9-dihydroxy-4,6-dimethyldec-4-en-2-yl]-6-hydroxy-7-methyl-1-oxacyclododec-9-en-2-one] | 20 | 40 | 16 | 0.2 | 0 | 30 | 40 | 20 | 0 | 30 | 50 | 8 | 1.2 |  | inhibition of CD62-L expression by lymphocytes [1]: significant inhibition; effect on the metabolic activity of HeLa cells [2]: showed inhibitory effect; IC50 ([2]; Homo sapiens): 16 µM; cytotoxicity ([3]; in the conditions tested): not cytotoxic; inhibition of IL-2 production by lymphocytes [4]: significant inhibition
CC(=C\C=C\C(C)=C\[C@H](O)[C@@H](O)C[C@H](C)O)/C=C(C)/C=C/C(=O)O[C@H]1CCCC(=O)O[C@@H](C(C)C)C/C=C/C[C@@H]1C [Compound 22, (6S,7S,9E,12R)-7-methyl-2-oxo-12-(propan-2-yl)-1-oxacyclododec-9-en-6-yl(2E,4E,6E,8E,10E,12S,13S,15S)-12,13,15-trihydroxy-4,6,10-trimethylhexadeca-2,4,6,8,10-pentaenoate] | 60 | 70 | 3.7 | 0.8 | 0 | 0 | 0 |  | 15 | 58 | 95 | 3 | 3.3 | effective | reduction of CD62-L expression ([1]; at concentrations >4 μM): significant reduction; cytopathic effect ([2]; at concentrations <16 μM): no cytotoxic nor cytopathic effect; cytotoxic effect ([3]; at concentrations <16 μM): no cytotoxic nor cytopathic effect; reduction of IL-2 production ([4]; at concentrations >4 μM): significant reduction
Mycolactone [reference compound] | 100 | 100 |  | 100 | 70 | 80 | 100 | 100 | 99 | 100 | 100 |  | 100 | significant activity | CD62-L expression (MFI: mean fluorescence intensity) (D) % relative to control ([1]; 0.4 μM): 100%; expression of CD62-L ([1]; at concentrations >0.4 μM): totally suppressed; IC50 [1]: < 0.03 µM; activity against acute pain (global score of pain, early phase 0-5 min) [5]: significant activity; IC50 [2]: 3.5 µM; cell viability ([2]; at concentrations >0.4 μM): markedly reduced cell viability; IC50 [4]: 0.1 µM; activation-induced production of IL-2 by human lymphocytes ([4]; at concentrations >0.4 μM): complete blockade; production of chemotactic signals by dendritic cells [6]: inhibits the production of chemotactic signals; release of inflammatory TNF by macrophages [7]: blocks the release of inflammatory TNF; T cell trafficking in vivo [8]: severely impairs T cell trafficking
